Data reported in patent US6933304B2, “Heteroarylalkanoic acids as integrin receptor antagonists” (Pharmacia Corporation, priority 2000, dated 2005).

Columns and labels:
[1] = target: T1, αVβ6 (HT-29 human colon carcinoma cells) (Homo sapiens, UniProt P06756+P18564); test: HT-29 cell adhesion assay (adhesion to immobilized LAP); type: cell-based; conditions: selectivity ratio: IC50 αVβ6 (HT-29) over IC50 β3
T1 construct: endogenous in cells; host or cells: HT-29 human colon carcinoma cells
Procedure: To evaluate compound potency for membrane-bound αVβ6 an additional cell-based adhesion assay was established using the HT-29 human colon carcinoma cell line. High surface expression of αVβ6 on HT-29 cells was confirmed by flow cytometry. Conditions were established in which cell adhesion to immobilized human latency associated peptide (LAP) was mediated by the αVβ6, as determined by a panel of integrin-specific, neutralizing monoclonal antibodies. Briefly, cells were incubated with inhibitor in the presence of 200 uM Mn^2+, allowed to adhere to immobilized LAP, washed, and adherent cells are detected by quantifying endogenous alkaline phosphatase using para-nitrophenyl phosphate. An 8-point dose-response curve using either 10-fold or 3-fold dilutions of compound was evaluated by fitting a four-parameter logistic, nonlinear model (using SAS). The compounds evaluated were relatively ineffective at inhibition of αVβ6-mediated cell adhesion. The selective antagonism of the αVβ3 integrin is viewed as desirable in this class of compounds, as αVβ6 may also play a role in normal physiological processes of tissue repair and cellular turnover that routinely occur in the skin and pulmonary tissues.

[2] = target: T2, Human fibrinogen receptor (IIb/IIIa) (Homo sapiens, UniProt P05106+P08514); test: Purified IIb/IIIa receptor assay (solid phase receptor assay, SPRA); type: binding; conditions: selectivity ratio: IC50 αIIbβ3 (solid phase receptor assay) over IC50 β3
T2 construct: Human fibrinogen receptor (IIb/IIIa) was purified from outdated platelets; from tissue; host or cells: outdated human platelets
T2 sequence (P08514 32-887 limits assumed): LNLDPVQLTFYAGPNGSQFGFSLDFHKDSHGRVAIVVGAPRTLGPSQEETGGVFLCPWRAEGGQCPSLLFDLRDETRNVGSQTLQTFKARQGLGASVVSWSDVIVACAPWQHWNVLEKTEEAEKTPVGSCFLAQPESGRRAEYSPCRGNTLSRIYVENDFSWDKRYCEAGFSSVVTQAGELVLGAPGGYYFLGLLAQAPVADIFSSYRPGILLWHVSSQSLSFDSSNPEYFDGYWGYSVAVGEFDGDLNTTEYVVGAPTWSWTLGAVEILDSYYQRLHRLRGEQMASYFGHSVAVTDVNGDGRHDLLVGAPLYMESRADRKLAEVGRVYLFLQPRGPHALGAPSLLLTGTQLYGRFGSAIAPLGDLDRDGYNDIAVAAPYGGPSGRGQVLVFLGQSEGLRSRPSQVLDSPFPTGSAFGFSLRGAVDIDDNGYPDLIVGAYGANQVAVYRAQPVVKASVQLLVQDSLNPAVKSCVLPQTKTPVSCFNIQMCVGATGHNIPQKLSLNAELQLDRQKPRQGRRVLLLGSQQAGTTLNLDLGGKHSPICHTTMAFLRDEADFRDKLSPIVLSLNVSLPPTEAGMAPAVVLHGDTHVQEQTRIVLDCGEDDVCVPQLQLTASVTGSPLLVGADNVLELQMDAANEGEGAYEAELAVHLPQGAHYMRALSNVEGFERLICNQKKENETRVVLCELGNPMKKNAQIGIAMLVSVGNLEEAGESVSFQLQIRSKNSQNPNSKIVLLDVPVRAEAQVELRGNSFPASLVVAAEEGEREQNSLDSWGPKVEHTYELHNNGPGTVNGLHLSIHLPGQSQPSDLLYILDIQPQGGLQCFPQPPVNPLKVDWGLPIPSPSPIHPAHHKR
T2 sequence (P08514 891-1039 partner limits assumed): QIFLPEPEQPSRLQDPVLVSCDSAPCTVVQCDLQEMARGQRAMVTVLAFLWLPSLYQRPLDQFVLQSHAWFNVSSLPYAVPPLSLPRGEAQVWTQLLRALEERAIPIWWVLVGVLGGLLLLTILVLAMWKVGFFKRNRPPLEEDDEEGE
T2 sequence (P05106 27-788): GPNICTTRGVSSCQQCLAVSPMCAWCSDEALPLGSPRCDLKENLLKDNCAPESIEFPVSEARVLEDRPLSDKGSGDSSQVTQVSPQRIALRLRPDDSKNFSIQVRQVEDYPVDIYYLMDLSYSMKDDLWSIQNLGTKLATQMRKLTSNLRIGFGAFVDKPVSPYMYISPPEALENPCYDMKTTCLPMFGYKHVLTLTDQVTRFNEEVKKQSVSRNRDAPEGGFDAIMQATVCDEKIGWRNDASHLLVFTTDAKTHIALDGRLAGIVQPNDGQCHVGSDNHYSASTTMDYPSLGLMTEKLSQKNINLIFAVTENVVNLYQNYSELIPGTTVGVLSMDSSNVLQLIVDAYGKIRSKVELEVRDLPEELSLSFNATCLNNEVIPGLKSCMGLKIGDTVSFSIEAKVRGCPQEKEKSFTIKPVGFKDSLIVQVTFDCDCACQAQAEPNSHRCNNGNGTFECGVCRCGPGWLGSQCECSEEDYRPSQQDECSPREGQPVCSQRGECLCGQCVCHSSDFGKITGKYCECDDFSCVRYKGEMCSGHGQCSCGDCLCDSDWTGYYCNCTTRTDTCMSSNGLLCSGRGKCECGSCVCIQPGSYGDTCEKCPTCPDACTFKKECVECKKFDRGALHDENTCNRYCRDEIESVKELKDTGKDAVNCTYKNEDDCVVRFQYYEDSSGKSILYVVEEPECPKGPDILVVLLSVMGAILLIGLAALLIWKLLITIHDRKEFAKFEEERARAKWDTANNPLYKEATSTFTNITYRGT
From the text: Human fibrinogen receptor (IIb/IIIa) was purified from outdated platelets. (Pytela, R., Pierschbacher, M. D., Argraves, S., Suzuki, S., and Rouslahti, E. “Arginine-Glycine-Aspartic acid adhesion receptors”, Methods in Enzymology 144(1987):475-489.) Human vitronectin was purified from fresh frozen plasma as described in Yatohgo, T., Izumi, M., Kashiwagi, H., and Hayashi, M., “Novel purification of vitronectin from human plasma by heparin affinity chromatography,” Cell Structure and Function 13(1988):281-292. Biotinylated human vitronectin was prepared by coupling NHS-biotin from Pierce Chemical Company (Rockford, IL) to purified vitronectin as previously described. (Charo, I. F., Nannizzi, L., Phillips, D. R., Hsu, M. A., Scarborough, R. M., “Inhibition of fibrinogen binding to GP IIb/IIIa by a GP IIIa peptide”, J. Biol. Chem. 266(3)(1991): 1415-1421.) Assay buffer, OPD substrate tablets, and RIA grade BSA were obtained from Sigma (St. Louis, Mo.). Anti-biotin antibody was obtained from Sigma (St. Louis, Mo.). Nalge Nunc-Immuno microtiter plates were obtained from (Rochester, N.Y.). ADP reagent was obtained from Sigma (St. Louis, Mo.).
This assay is essentially the same reported in Niiya, K., Hodson, E., Bader, R., Byers-Ward, V. Koziol, J. A., Plow, E. F. and Ruggeri, Z. M., “Increased surface expression of the membrane glycoprotein IIb/IIIa complex induced by platelet activation: Relationships to the binding of fibrinogen and platelet aggregation”, Blood 70(1987):475-483. The purified human fibrinogen receptor (IIb/IIIa) was diluted from stock solutions to 1.0 μg/mL in Tris-buffered saline containing 1.0 mM Ca^++, Mg^++, and Mn^++, pH 7.4 (TBS^+++). The diluted receptor was immediately transferred to Nalge Nunc-Immuno microtiter plates at 100 μL/well (100 ng receptor/well). The plates were sealed and incubated overnight at 4° C. to allow the receptors to bind to the wells. All remaining steps were at room temperature. The assay plates were emptied and 200 μL of 1% RIA grade BSA in TBS^+++ (TBS^+++/BSA) were added to block exposed plastic surfaces. Following a 2 hour incubation, the assay plates were washed with TBS^+++ using a 96 well plate washer. Logarithmic serial dilution of the test compound and controls were made starting at a stock concentration of […] and using 2 nM biotinylated vitronectin in TBS^+++/BSA as the diluent. This premixing of labeled ligand with test (or control) ligand, and subsequent transfer of 50 μL aliquots to the assay plate was carried out with a CETUS Propette robot; the final concentration of the labeled ligand was 1 nM and the highest concentration of test compound was 1.0×10^−4 M. The competition occurred for two hours after which all wells were washed with a plate washer as before. Affinity purified horseradish peroxidase labeled goat anti-biotin antibody was diluted 1:2000 in TBS^+++/BSA and 125 μL were added to each well. After 45 minutes, the plates were washed and incubated with […] substrate in 100 mM/L citrate buffer, pH 5.0. The plate was read with a microtiter plate reader at a wavelength of 450 nm and when the maximum-binding control wells reached an absorbance of about 1.0, the final A450 were recorded for analysis. The data were analyzed using a macro written for use with the EXCELJ spreadsheet program. The mean, standard deviation, and %CV were determined for duplicate concentrations. The mean A450 values were normalized to the mean of four maximum-binding controls (no competitor added)(B-MAX). The normalized values were subjected to a four parameter curve fit algorithm, [Robard et al., Int.

[3] = target: T3, αVβ3 integrin (293-β3 cells) (Homo sapiens, UniProt P05106+P06756); test: 293-β3 cell adhesion assay (adhesion to immobilized vitronectin); type: cell-based; conditions: 200 uM Mn2+, read-out: 293-β3 (IC50 <10 μM)
T3 construct: expressed in transfected cells; host or cells: 293 human embryonic kidney cells (293-β3)
T3 sequence (P06756 31-889 limits assumed): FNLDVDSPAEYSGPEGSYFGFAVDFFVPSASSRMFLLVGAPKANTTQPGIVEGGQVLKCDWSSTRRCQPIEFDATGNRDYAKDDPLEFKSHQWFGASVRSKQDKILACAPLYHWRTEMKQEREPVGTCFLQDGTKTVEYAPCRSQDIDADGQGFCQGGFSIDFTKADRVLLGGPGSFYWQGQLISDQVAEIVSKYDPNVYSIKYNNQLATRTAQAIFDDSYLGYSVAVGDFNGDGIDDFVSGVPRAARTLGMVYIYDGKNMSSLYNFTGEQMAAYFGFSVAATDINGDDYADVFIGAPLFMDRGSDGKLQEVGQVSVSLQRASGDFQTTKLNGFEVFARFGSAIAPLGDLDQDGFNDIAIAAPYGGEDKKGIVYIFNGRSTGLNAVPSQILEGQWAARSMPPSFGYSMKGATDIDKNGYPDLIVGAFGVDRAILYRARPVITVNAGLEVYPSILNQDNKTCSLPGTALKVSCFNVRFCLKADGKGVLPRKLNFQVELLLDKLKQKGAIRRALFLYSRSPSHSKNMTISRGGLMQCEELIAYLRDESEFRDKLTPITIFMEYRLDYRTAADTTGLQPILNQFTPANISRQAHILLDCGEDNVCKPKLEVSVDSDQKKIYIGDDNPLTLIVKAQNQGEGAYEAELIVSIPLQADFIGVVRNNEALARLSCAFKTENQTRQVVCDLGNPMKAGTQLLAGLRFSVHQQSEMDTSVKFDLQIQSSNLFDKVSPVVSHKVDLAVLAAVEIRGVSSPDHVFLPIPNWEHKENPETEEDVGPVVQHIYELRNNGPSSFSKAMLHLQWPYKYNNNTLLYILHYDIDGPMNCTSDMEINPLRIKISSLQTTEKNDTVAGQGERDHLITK
T3 sequence (P06756 891-1048 partner limits assumed): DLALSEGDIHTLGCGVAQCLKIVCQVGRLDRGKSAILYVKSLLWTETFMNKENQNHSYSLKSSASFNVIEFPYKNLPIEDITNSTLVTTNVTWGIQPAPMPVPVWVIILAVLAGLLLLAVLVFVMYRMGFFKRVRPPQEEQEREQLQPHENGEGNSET
T3 sequence (P05106 27-788): as the sequence (P05106 27-788) above
From the text: While the β3 subunit of αVβ3 is only known to complex with αV or αIIb, the αV subunit complexes with multiple β subunits. The three αV integrins most homologous with αVβ3 are αVβ1, αVβ5 and αVβ6, with 43%, 56% and 47% amino acid identity in the β subunits, respectively. To evaluate the selectivity of compounds between the integrins αVβ3 and αVβ6, cell-based assays were established using the 293 human embryonic kidney cell line. 293 cells express αVβ1, but little to no detectable αVβ3 or αVβ6. cDNAs for β3 and β6 were transfected separately into 293 cells to generate 293-β3 and 293-β6 cells, respectively. High surface expression of αVβ3 and αVβ6 was confirmed by flow cytometry. Conditions were established for each cell line in which cell adhesion to immobilized human vitronectin was mediated by the appropriate integrin, as determined by a panel of integrin-specific, neutralizing monoclonal antibodies. Briefly, cells were incubated with inhibitor in the presence of 200 uM Mn^2+, allowed to adhere to immobilized vitronectin, washed, and adherent cells are detected endogenous alkaline phosphatase and para-nitrophenyl phosphate. An 8-point dose-response curve using either 10-fold or 3-fold dilutions of compound was evaluated by fitting a four-parameter logistic, nonlinear model (using SAS).

T1 sequence (P06756 31-889 limits assumed): as the sequence (P06756 31-889 limits assumed) above
T1 sequence (P06756 891-1048 partner limits assumed): as the sequence (P06756 891-1048 partner limits assumed) above
T1 sequence (P18564 22-788): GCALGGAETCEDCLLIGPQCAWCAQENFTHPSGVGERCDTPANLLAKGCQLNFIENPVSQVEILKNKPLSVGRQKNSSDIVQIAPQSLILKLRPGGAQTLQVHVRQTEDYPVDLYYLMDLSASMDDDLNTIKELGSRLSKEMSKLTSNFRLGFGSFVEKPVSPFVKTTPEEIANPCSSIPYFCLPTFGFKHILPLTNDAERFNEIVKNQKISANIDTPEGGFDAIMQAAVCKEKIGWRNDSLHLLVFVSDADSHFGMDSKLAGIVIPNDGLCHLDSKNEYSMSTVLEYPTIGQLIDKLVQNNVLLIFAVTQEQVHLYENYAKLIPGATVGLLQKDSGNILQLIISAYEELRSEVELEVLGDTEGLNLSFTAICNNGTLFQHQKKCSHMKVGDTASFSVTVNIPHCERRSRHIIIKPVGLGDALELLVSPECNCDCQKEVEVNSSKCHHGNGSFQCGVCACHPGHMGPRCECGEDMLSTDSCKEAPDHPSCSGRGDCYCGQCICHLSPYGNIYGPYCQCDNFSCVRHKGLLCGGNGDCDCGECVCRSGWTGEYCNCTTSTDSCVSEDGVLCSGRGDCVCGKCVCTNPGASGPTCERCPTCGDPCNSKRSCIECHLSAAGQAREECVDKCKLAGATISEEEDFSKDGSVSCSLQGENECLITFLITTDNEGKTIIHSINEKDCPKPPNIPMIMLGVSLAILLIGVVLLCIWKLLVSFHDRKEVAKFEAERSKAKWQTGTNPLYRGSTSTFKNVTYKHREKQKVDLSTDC

Structure (SMILES) | HT-29 β-6 Selectivity* (β6/β3) [1] | SPRA AIIbB3 Selectivity* IIbIIIa/β3 [2] | IC50 [3]
CC(C)C(C)(CC(=O)O)Cc1nc(CCCc2ccc3c(n2)NCCC3)no1 (stereo not drawn) [Example 46, 3,4-Dimethyl-3-{3-[3-(5,6,7,8-tetrahydro-[1,8]naphthyridin-2-yl)-propyl]-[1,2,4]oxadiazol-5-ylmethyl}-pentanoic acid] | +++ (Selectivity Ratio >100 +++) | +++ (Selectivity Ratio >100 +++) | < 10 µM
O=C(O)CCCc1nc(CCCc2ccc3c(n2)NCCC3)no1 [Example 50, 4-{3-[3-(5,6,7,8-Tetrahydro-[1,8]naphthyridin-2-yl)-propyl]-[1,2,4]oxadiazol-5-yl}-butyric acid] | +++ (Selectivity Ratio >100 +++) | +++ (Selectivity Ratio >100 +++) | < 10 µM
CC(CC(=O)O)(Cc1nc(CCCc2ccc3c(n2)NCCC3)no1)c1cccnc1 (stereo not drawn) [Example 51, 3-Methyl-3-pyridin-3-yl-4-{3-[3-(5,6,7,8-tetrahydro-[1,8]naphthyridin-2-yl)-propyl]-[1,2,4]oxadiazol-5-yl}-butyric acid] | +++ (Selectivity Ratio >100 +++) | +++ (Selectivity Ratio >100 +++) | < 10 µM
CC(C)(CC(=O)O)Cc1nc(CCCCNc2ccccn2)no1 [Example 62, β,β-dimethyl-3-[4-(2-pyridinylamino)butyl]-1,2,4-oxadiazole-5-butanoic acid] | +++ (Selectivity Ratio >100 +++) | +++ (Selectivity Ratio >100 +++) | < 10 µM
CC(CC(=O)O)Cc1nc(CCCCNc2ccccn2)no1.Cl (stereo not drawn) [Example 69, 3-methyl-4-{3-[4-(pyridin-2-ylamino)butyl]-1,2,4-oxadiazol-5-yl}butanoic acid] | +++ (Selectivity Ratio >100 +++) | ++ (Selectivity Ratio of 10-100 ++) | < 10 µM
CC(CC(=O)O)Cc1nc(CCCc2ccc3c(n2)NCCC3)no1 (stereo not drawn) [Example 70, 3-methyl-4-{3-[3-(5,6,7,8-tetrahydro-1,8-naphthyridin-2-yl)propyl]-1,2,4-oxadiazol-5-yl}butanoic acid] | +++ (Selectivity Ratio >100 +++) | +++ (Selectivity Ratio >100 +++) | < 10 µM

Further lines, results first:

HT-29 β-6 Selectivity* (β6/β3) [1] | SPRA AIIbB3 Selectivity* IIbIIIa/β3 [2] | IC50 [3] | Structure (SMILES)
+++ (Selectivity Ratio >100 +++) | +++ (Selectivity Ratio >100 +++) | < 10 µM | CCCC(C)(CC(=O)O)Cc1nc(CCCc2ccc3c(n2)NCCC3)no1 (stereo not drawn) [Example 44, 3-Methyl-3-{3-[3-(5,6,7,8-tetrahydro-[1,8]naphthyridin-2-yl)-propyl]-[1,2,4]oxadiazol-5-ylmethyl}-hexanoic acid]
++ (Selectivity Ratio of 10-100 ++) | ++ (Selectivity Ratio of 10-100 ++) | < 10 µM | CCC(CC)(CC(=O)O)Cc1nc(CCCc2ccc3c(n2)NCCC3)no1 [Example 45, 3-Ethyl-3-{3-[3-(5,6,7,8-tetrahydro-[1,8]naphthyridin-2-yl)-propyl]-[1,2,4]oxadiazol-5-ylmethyl}-pentanoic acid]
+++ (Selectivity Ratio >100 +++) | +++ (Selectivity Ratio >100 +++) | < 10 µM | CC(CC(=O)O)(Cc1nc(CCCc2ccc3c(n2)NCCC3)no1)c1ccccc1 (stereo not drawn) [Example 47, 3-Methyl-3-phenyl-4-{3-[3-(5,6,7,8-tetrahydro-[1,8]naphthyridin-2-yl)-propyl]-[1,2,4]oxadiazol-5-yl}-butyric acid]
+++ (Selectivity Ratio >100 +++) | +++ (Selectivity Ratio >100 +++) | < 10 µM | CC(CC(=O)O)(Cc1nc(CCCCNc2ccccn2)no1)c1cccnc1 (stereo not drawn) [Example 57, 3-Methyl-3-pyridin-3-yl-4-{3-[4-(pyridin-2-ylamino)-butyl]-[1,2,4]oxadiazol-5-yl}-butyric acid]
